Data reported in patent US11649231B2, “Compound as mTOR inhibitor and use thereof” (MEDICINAL BIOCONVERGENCE RESEARCH CENTER, priority 2018, dated 2023).

What was measured:
LRS and RagD = LRS and RagD (Homo sapiens (Human), UniProt Q9P2J5); assay: Inhibition of the interaction of LRS and RagD (immunoprecipitation) in SW620 cells; assay type: cell-based; details: 10 uM for 1 hour, leucine restimulation, anti-LRS or anti-RagD precipitate
Description: Cells were lysed using a lysis buffer containing a protease inhibitor, and a primary antibody was added to the cell lysate for immunoprecipitation, followed by stirring at 4° C. for 2 hours and allowed to stand. A 50% protein agarose G-Sepharose slurry was added and left for an additional 4 hours. After washing three times with cold lysis buffer, the precipitate was dissolved in SDS sample buffer, separated by SDS-PAGE, and immunoblotted using anti-LRS or anti-RagD antibody.

RagD = RagD GTP hydrolysis inhibitory activity (GTP-agarose bead pulldown assay) in SW620 cells; assay type: cell-based; details: 10 μM for 1 hour, leucine restimulation 15 min
Description: GTP-agarose bead pulldown assay was performed to analyze RagD bound to GTP.
After washing the cells with cold PBS, cells were obtained in GTP-binding buffer (20 mM Tris-HCl, pH 7.5, 5 mM MgCl2, 2 mM PMSF, 20 μg/ml leupeptin, 10 μg/ml aprotinin, 150 mM NaCl, 1% Triton X-100, 1× phosphatase inhibitor cocktail). The cells were sonicated for 15 seconds to lyse, and the cell lysate was centrifuged at 4° C. for 10 minutes and at 13000×g to obtain a supernatant. The obtained protein solution (contained in 500 μl of GTP-binding buffer) was treated with 100 μl of GPT-agarose bead (Sigma Aldrich, Cat no. G9768) and left at 4° C. for 30 minutes. Thereafter, the beads were washed with GTP-binding buffer, and the supernatant was recovered. The washed beads in the recovered supernatant were once again treated for 30 minutes. The beads were washed again, and the recovered supernatant was left overnight at 4° C. After washing 5 times with GTP-binding buffer to separate contaminants that may have been included, the GTP-binding protein was analyzed by performing immunoblot analysis using anti-RagD or ARF1 antibody. ARF1 was used as a negative control.

mTORC1 [1] = assay: mTORC1 activity inhibitory effect at 20 μM, phospho-p70 S6 Kinase Western blot in SW620 cells; details: leucine-free 1 h 30 min, then leucine 15 min, vs DMSO control
Description: In order to evaluate the inhibitory effect of the compounds according to the present invention on the activity of mTORC1, an experiment was performed in the following manner.

mTORC1 [2] = assay: mTORC1 activation (p-S6K T389) in TSC2 CKO epilepsy animal model; assay type: in vivo, mouse; details: TSC2 CKO mice; rapamycin 3 mg/kg or Example 1-1K 10 mg/kg i.p.; 4 weeks; vs control
Description: (§1) Animal care was performed according to an animal protocol approved by the Animal Experiment Committee of Seoul National University. TSC2^GFAP1 CKO mice were generated as follows. TSC2^flox/flox mice were first crossed with the same GFAP-Cre mouse line. The resulting TSC2^flox/+; TSC2^flox/flox by crossing GFAP-Cre mice with other TSC2^flox/flox mice; GFAP-Cre mice were generated.
For western blot analysis, mouse cerebral neocortex and hippocampus were dissected and sonicated in cell lysis buffer (Cell Signaling, Beverly, Mass., USA). After centrifugation at 15,000 rpm at 4° C. for 1 hour. a supernatant was obtained and the protein concentration was measured by the Bradford method (Pierce, Rockford, Ill., USA). An equal amount of total protein extract was separated by SDS-PAGE and transferred to a nitrocellulose membrane.

autophagy [3] = assay: Autophagy markers (LC3 II increase or p62 cleavage) in TSC2 CKO epilepsy animal model; assay type: in vivo, mouse; details: TSC2 CKO mice; rapamycin 3 mg/kg or Example 1-1K 10 mg/kg i.p.; 4 weeks
Description: as §1
(§2) For western blot analysis, mouse cerebral neocortex and hippocampus were dissected and sonicated in cell lysis buffer (Cell Signaling, Beverly, Mass., USA). After centrifugation at 15,000 rpm at 4° C. for 1 hour. a supernatant was obtained and the protein concentration was measured by the Bradford method (Pierce, Rockford, Ill., USA). An equal amount of total protein extract was separated by SDS-PAGE and transferred to a nitrocellulose membrane. After incubation with anti-p-S6K (T389) (Cell Signaling, #9205), anti-S6K (Cell Signaling, #9202), anti-Actin (Santa Cruz Biotechnology, #sc-1616), anti-p-AKT (S473) (Cell signaling, #4060), anti-AKT (Cell signaling, #2920) anti-p62/SQSTM1 (Cell signaling, #39749) and anti-LC3A (Cell signaling, #4108) antibodies in 1% TTBBS buffer (10 mM Tris, 10% Tris (Tris-HCl, pH 7.5, 150 mM NaCl, 0.05% Tween 20), the membrane was reacted with a peroxidase-conjugated secondary antibody. Signals were detected using an improved chemiluminescent reagent (Pierce, Rockford, Ill., USA).

mTORC2 [4] = target: T1, mTORC2 (Mus musculus (Mouse), UniProt Q9JLN9); assay: mTORC2 activation (p-AKT S473) in TSC2 CKO epilepsy animal model; assay type: in vivo; details: TSC2 CKO mice; rapamycin 3 mg/kg or Example 1-1K 10 mg/kg i.p.; 4 weeks
Description: as §1, §2

mTORC2 [5] = target: T1, mTORC2; assay: In vivo mTORC2 activity, AKT phosphorylation in brain of C57BL/6 mice; details: 100 mg/kg intraperitoneal; 7-week-old C57BL/6 male mice
Description: (§3) The salt of the compound of the Example 1-1 was administered at a dose of 100 mg/kg (in 10% DMAC, 15% Tween 80, 75% 0.1M Na2HPO4, pH9.4), and rapamycin at a dose of 2 mg/kg (in 10% DMAC, 15% Tween 80, 75% saline).

autophagy [6] = assay: In vivo autophagy (LC3 II or p62 degradation) in brain of C57BL/6 mice; design: species or system mouse; details: 100 mg/kg intraperitoneal; 7-week-old C57BL/6 male mice
Description: as §3

mTORC1 [7] = assay: In vivo mTORC1 inhibition, S6K phosphorylation in brain neocortex and hippocampus of C57BL/6 mice; design: species or system mouse
Description: as §3
On the other hand, the present inventor attempted to evaluate the mTOR. inhibitory activity by salt concentration of the compound of Example 1-1 based on the above results.

B6C3H/APP/PS1 mice = assay: Amyloid plaque removal in Alzheimer's animal model, ThS staining; assay type: in vivo, mouse; details: 5, 10 or 20 mg/kg intraperitoneal once daily for 7 days, vs vehicle
Description: In the experiment, 7 months old male B6C3H/APP/PS1 mice were purchased from Jackson Lab (Bar Harbor, Me., USA) and used. These mouse are all dual transgenic mice expressing chimeric mouse/human amyloid precursor protein and mutant human presenilin 1, both of these are about CNS neurons. Both mutations are associated with early onset Alzheimer's.
The prepared salt (1-4K) of the compound of Example 1-1 was intraperitoneally administered at 0, 5, 10 or 20 mpk (mg/kg) per mouse, once daily for 7 days. As the solvent, 10% DMAC, 15% Tween 80, and 75% 0.1M Na2HPO4 buffer were used.
For immunohistochemical analysis, mice were anesthetized with 2% Avertin (20 μg g^−1, intraperitoneally), perfused with 0.9% saline, and perfused with ice-cold 4% paraformaldehyde. Excised brains of B6C3H/APP/PS1 mice were fixed in 4% paraformaldehyde (pH 7.4) for 16 hours. The fixed brain samples were immersed in 30% sucrose for cryoprotection and sliced to a thickness of 35 μm using a Cryostat (Microm HM 525, Thermo Scientific, Waltham, Mass., USA). To visualize Aβ plaques, sliced brain sections were stained with thioflavin S (ThS) for 7 minutes. […]
Images were taken with a Leica DM2500 fluorescence microscope. Plaque numbers were calculated from a single brain image of each mouse using the ImageJ software program.
Aβ deposition in the brain of APP/PS1 mice can be detected at 6 months of age. […]

Chain of LRS and RagD (Q9P2J5 whole entry): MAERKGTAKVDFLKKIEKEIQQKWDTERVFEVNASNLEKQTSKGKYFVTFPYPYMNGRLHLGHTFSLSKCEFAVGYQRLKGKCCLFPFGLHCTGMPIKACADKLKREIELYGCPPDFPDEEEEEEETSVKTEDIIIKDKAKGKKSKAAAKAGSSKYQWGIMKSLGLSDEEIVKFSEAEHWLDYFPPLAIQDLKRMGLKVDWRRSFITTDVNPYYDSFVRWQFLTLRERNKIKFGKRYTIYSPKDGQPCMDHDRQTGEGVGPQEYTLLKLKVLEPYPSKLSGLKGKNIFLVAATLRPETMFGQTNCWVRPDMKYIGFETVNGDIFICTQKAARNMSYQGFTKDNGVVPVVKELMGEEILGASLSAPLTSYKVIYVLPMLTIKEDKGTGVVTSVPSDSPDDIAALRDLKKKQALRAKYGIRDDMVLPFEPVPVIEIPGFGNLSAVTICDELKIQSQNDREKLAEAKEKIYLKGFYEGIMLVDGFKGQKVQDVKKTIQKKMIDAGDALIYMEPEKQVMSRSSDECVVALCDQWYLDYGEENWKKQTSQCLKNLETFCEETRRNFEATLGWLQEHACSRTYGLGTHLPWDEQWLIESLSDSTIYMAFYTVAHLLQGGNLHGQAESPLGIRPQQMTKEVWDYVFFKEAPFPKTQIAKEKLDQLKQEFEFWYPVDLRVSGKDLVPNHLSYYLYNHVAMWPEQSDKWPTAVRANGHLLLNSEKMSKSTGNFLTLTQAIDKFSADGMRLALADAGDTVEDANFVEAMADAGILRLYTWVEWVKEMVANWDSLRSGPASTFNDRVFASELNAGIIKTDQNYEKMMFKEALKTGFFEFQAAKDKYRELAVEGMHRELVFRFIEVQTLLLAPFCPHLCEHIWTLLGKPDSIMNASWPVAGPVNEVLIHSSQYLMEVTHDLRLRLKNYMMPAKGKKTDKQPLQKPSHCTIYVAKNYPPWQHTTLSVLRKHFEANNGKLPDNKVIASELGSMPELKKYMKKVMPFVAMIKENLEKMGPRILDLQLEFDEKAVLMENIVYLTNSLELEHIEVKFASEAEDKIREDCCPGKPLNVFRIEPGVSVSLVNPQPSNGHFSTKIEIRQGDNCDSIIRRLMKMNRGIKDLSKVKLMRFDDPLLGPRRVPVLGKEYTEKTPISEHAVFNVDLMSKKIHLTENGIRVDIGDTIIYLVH

| interaction between LRS and RagD (LRS and RagD) | mTORC2 activation, p-AKT (S473) (mTORC2 [4]) | Compound | GTP hydrolysis of RagD (RagD) | mTORC1 inhibitory effect (%) (mTORC1 [1]) | mTORC1 activation, p-S6K (T389) in cerebral cortex and hippocampus (mTORC1 [2]) | autophagy (LC3 II increase or p62 cleavage) (autophagy [3]) | also measured |
| --- | --- | --- | --- | --- | --- | --- | --- |
| directly inhibited | – | O=C1NC(=S)S/C1=C\c1cnn(-c2ccccc2)c1 [Example 1-1, (5Z)-5-[(1-phenylpyrazol-4-yl)methylene]-2-thioxo-thiazolidin-4-one] | inhibiting the GTP hydrolysis of RagD | – | – | – | – |
| directly inhibited | not affected | O=C1[N-]C(=S)S/C1=C\c1cnn(-c2ccccc2)c1.[K+] [Example 1-1K, Potassium Salt of (5Z)-5-[(1-phenylpyrazole-4-yl)methylene]-2-thioxo-thiazolidin-4-one] | inhibiting the GTP hydrolysis of RagD | ≥ 85 | reduced | induced | phosphorylation degree of AKT (mTORC2 activity) (mTORC2 [5]): not changed; autophagy action (degradation of LC3 II or p62) (autophagy [6]): increased; phosphorylation of S6K in the brain, by dose (mTORC1 [7]; 0, 1, 2.5, 5, 10, 20 and 50 mg/kg intraperitoneal, C57BL/6 male mice): inhibited the phosphorylation of S6K in the brain of the animal in a concentration-dependent manner; phosphorylated S6K in brain neocortex and hippocampus (mTORC1 [7]; 100 mg/kg intraperitoneal, 7-week-old C57BL/6 male mice): not detected; amyloid plaque deposits (ThS staining) in the brain (B6C3H/APP/PS1 mice): significantly reduced |
| – | – | O=C1NC(=S)S/C1=C\c1ccn(-c2ccc(Cl)cc2)n1 [Example 1-55, (5Z)-5-[[1-(4-chlorophenyl)pyrazol-3-yl]methylene]-2-thioxo-thiazolidin-4-one] | – | 74.6 ± 6.5 | – | – | – |
| – | – | O=C1NC(=O)/C(=C/c2ccn(-c3ccccc3)n2)S1 [Example 1-58, (5Z)-5-[[1-phenylpyrazol-3-yl]methylene]thiazolidine-2,4-dione] | – | 59.51 ± 4.35 | – | – | – |
| – | – | O=C1NC(=O)/C(=C/c2ccn(-c3cccnc3)n2)S1 [Example 1-60, (5Z)-5-[[1-(3-pyridyl)pyrazol-3-yl]methylene]thiazolidine-2,4-dione] | – | 81.52 ± 3.79 | – | – | – |
| – | not affected | CO[C@H]1C[C@@H]2CC[C@@H](C)[C@@](O)(O2)C(=O)C(=O)N2CCCC[C@H]2C(=O)O[C@H]([C@H](C)C[C@@H]2CC[C@@H](O)[C@H](OC)C2)CC(=O)[C@H](C)/C=C(\C)[C@@H](O)[C@@H](OC)C(=O)[C@H](C)C[C@H](C)/C=C/C=C/C=C/1C [rapamycin, reference compound] | – | – | reduced | induced | – |
